The results in this text go back to patent publication US11779555B2, “Combination of immunotherapy with local chemotherapy for the treatment of malignancies” (THE JOHNS HOPKINS UNIVERSITY, priority 2015, dated 2023).

Series [1] concerns adoptively transferred ova specific (CD45.2) T cells. The series is described as follows: Adoptive transfer of OT-I lymphocytes in GL-261 ova tumor bearing mice. Format: in vivo. As to conditions: four days after adoptive transfer, three days after initiation of chemotherapy. An excerpt:
Adoptive transfer experiments: For the adoptive transfer experiments, 5 week old female B6.SJL-Ptprca Pepcb/BoyJ mice expressing the congenic marker CD45.1 were used as the recipient mice. Inbred C57BL6/J (B6), B6.129S7-Rag1tm1Mom/J (RAG^−/−), B6.SJL-Ptprcb Pepcb/BoyJ (CD45.2) and C57BL/6-Tg(TcraTcrb)1100Mjb/J (OT-I) mice were purchased from The Jackson Laboratory. 6-8 weeks old female RAG−/− OT-I CD45.2 transgenic mice were used as the donor mice.
RAG−/− OT-I CD45.2 mice were lethally anesthetized and their spleens were harvested and passed through a 40-μM nylon mesh. Red blood cell lysis buffer was consecutively applied to remove red blood cells. Cells were counted, checked for their viability, and washed twice with PBS. Two million cells were transferred in 100 uL of PBS for every recipient mouse via retro-orbital injection.
Mice were implanted with 300,000 Gl-261-ova-luc cells at day 0 and RAG−/− OT-I CD45.2 lymphocytes were transferred at day 13: 1 day before starting treatment with chemotherapy. The experimental schedule of the GL-261-ova tumor experiments is explained in detail in FIG. 1.
(§1) Appropriate isotype controls were used.

Series [2] concerns bone marrow cells. Kind of series: Bone marrow cellularity and CD45+ leukocytes. Format: in vivo, C57BL/6J mice.
Description: as §1

Series [3] concerns OT-I T cells. Kind of series: In vivo proliferation of adoptively transferred OT-I T cells in the spleen. More on the design: species or system mice. As to conditions: three days after the transfer. As for the experimental part: For in vivo cell proliferation tracing, OT-I RAG−/− splenocytes were labeled with cell proliferation dye eFluor450 (eBioscience, San Diego, Calif.) in the following way: Lymphocytes were isolated from spleen cells, their viability was checked post-isolation, and viable lymphocytes were washed with HBSS without Ca^2+ or Mg^2+ once in preparation for the staining. A 10 μM solution of the cell proliferation dye was made in HBSS without Ca^2+ and Mg^2+. After washing the isolated cells, the cells were reconstituted by adding the 10 μM dye solution to a concentration of 5×10^6 cells/mL. While the solution was added to the cells, the tube was gently vortexed to ensure homogeneous uptake of the dye by all cells.
The cells were incubated for 8 min in the dark at room temperature. Cells were quenched with 20 mls of HBSS with 20% FBS and were then spun at 1400 rpm for 5 min at 4° C. Cells were washed with HBSS without FBS an additional two times and cells were checked for viability. Cells were resuspended with HBSS (w/o FBS) to a concentration of 10×10^6 cells/mL. The cells were passed through a […] cell strainer to ensure they were in a single cell suspension and 100 μL of the cell suspension was injected retro-orbitally in the recipient mice immediately.

For series [4], the system named is effector memory T cells. The series is described as follows: IFNγ production of memory T cells after re-challenge. In kind it is in vivo, mice. As to conditions: twenty days after re-challenge, PMA/Ionomycin stimulation. The protocol:
as §1
Re-challenge experiments: Tumor burden was assessed weekly with IVIS imaging. Mice were considered “cured” of their brain tumors following initial treatment if no evidence of tumor was present at consecutive IVIS imaging sessions, and mice were further considered long-term survivors if no tumor was detected 90 days post implantation. Long-term survivors from each experimental group were re-challenged 90 days post implantation with 300,000 GL-261 LUC cells injected intracranially in the contralateral hemisphere. Cells were prepared in […]. Naïve mice were implanted in parallel as controls, and mice were followed with weekly IVIS imaging.

The test system of series [5] is CD3+ blood lymphocytes. The series is described as follows: Circulating CD3+ lymphocytes in peripheral blood (serial blood draws). In kind it is in vivo, C57BL/6J mice. As to conditions: Day 30 post implantation, end of regimen, lasting at least 2 weeks. As for the experimental part:
Peripheral blood was collected by cardiac puncture before harvesting other tissues at day 21 and 30. A total of 600 μL was collected from each mouse in heparin-coated tubes (BD Biosciences, Franklin Lakes, N.J.). Blood was mixed with PBS in a 1:1 ratio and overlaid onto a Ficoll-Paque Plus (GE Healthcare) base in a 1:3 ratio. After centrifugation, peripheral lymphocytes were extracted from the resulting horizon and were washed twice with PBS. In addition to the blood draws performed on days 21 or 30 post implantation, blood draws were also performed on days 26 and 41 post implantation. On these days, blood was taken via tail vein sampling and 100 μL of blood was collected for every mouse. Red blood cells were lysed using RBC Lysis Buffer (eBioscience) and subsequently stained with CD3 FITC Clone: 17A2 (eBioscience). All flow cytometry experiments were performed on a LSRII (BD Biosciences) and analysis was performed using FlowJo software (TreeStar, Ashland, Oreg.).

The test system of series [6] is lymphocytes of draining lymph nodes, spleen and blood. Kind of series: Flow cytometric analysis of draining lymph nodes and peripheral lymphoid organs. An excerpt:
[…] The spleen, brain, cervical lymph nodes (LN), and bone marrow were harvested and passed through a 40-μm strainer. A 30%-37%-60% Percoll gradient (GE Healthcare, Buckinghamshire, UK) was used to isolate immune cell populations from brain tumors and the draining LNs. After centrifugation, the 37%-60% interface contained lymphocytes, monocytes, and microglia in the case of brain tumors, and lymphocytes and monocytes in the case of draining LNs.
(§2) Lymphocytes from all tissues were stimulated with PMA-Ionomycin and Golgi stop (eBioscience) for 4-6 hours in a 37° C. humidified incubator maintained at 5% CO2. […] For the memory T cells, lymphocytes were stained with CD62L PE (BD Biosciences) and CD44 BV421 (BD Biosciences). […] Appropriate isotype controls were used. For the adoptive transfer experiment, CD45.2 PE Clone: 104 (eBioscience) was used to stain the isolated lymphocytes.
(In flow cytometry, cells or beads pass a laser one at a time.)

For series [7], the system named is intracranial GL-261 LUC gliomas. Kind of series: Survival of mice with intracranial GL-261 gliomas. Format: in vivo, C57BL/6J mice. As to conditions: Example 3; chemotherapy at day 14, post anti-PD1. As for the experimental part: Tumor model: Female C57BL/6J mice (The Jackson Laboratory, Bar Harbor, Me.), 6 to 8 weeks old, were implanted (Day 0) with GL-261 LUC cells to establish intracranial gliomas, as previously described (Zeng et al., 2013). Briefly, mice were anesthetized with ketamine/xylazine (100 mg/kg ketamine, 10 mg/kg xylazine) and a small midline incision was made to expose the skull. A burr hole was then drilled directly over the striatum and 130,000 GL-261 LUC cells were implanted at a depth of 3 mm from the cortical surface. The tumor take rate was 100%. Day 7 post implantation, mice were imaged to assess the progress of tumor growth using an IVIS platform (In Vivo Imaging System, Caliper Life Sciences, Hopkinton, Mass.). Mice were then stratified into experimental treatment groups based on luminescence. Each treatment group had 5 to 15 mice in the survival experiments. […]
Surgical procedure: polymer implantation: Mice in the LC or EP treatment groups were anesthetized with ketamine/xylazine (100 mg/kg ketamine, 10 mg/kg xylazine). […] Mice were monitored for a period of 30 min after recovery for signs of neurological deficits. […]
Statistics: Survival was plotted using Kaplan-Meier curves, and curves were analyzed with the log-rank Mantel-Cox test using GraphPad Prism software (GraphPad Software, La Jolla, Calif.). […]

Series [8] has as its system GL-261 LUC cells in the contralateral hemisphere. Kind of series: Tumor re-challenge of long-term survivors. Format: in vivo, mice. The protocol: Re-challenge experiments: Tumor burden was assessed weekly with IVIS imaging. Mice were considered “cured” of their brain tumors following initial treatment if no evidence of tumor was present at consecutive IVIS imaging sessions, and mice were further considered long-term survivors if no tumor was detected 90 days post implantation. […] Cells were prepared in 14 of PBS. Naïve mice were implanted in parallel as controls, and mice were followed with weekly IVIS imaging.

The subject of series [9] is tumor infiltrating lymphocytes. The series is described as follows: Flow cytometric analysis of tumor infiltrating lymphocytes (TILs).
Description: Flow cytometric analysis of tumor infiltrating immune cells and peripheral lymphoid cell populations: At day 21 or day 30 post tumor implantation, mice were sacrificed using a lethal dose of ketamine/xylazine cocktail. The spleen, brain, cervical lymph nodes (LN), and bone marrow were harvested and passed through a 40-μm strainer. A 30%-37%-60% Percoll gradient (GE Healthcare, Buckinghamshire, UK) was used to isolate immune cell populations from brain tumors and the draining LNs. After centrifugation, the 37%-60% interface contained lymphocytes, monocytes, and microglia in the case of brain tumors, and lymphocytes and monocytes in the case of draining LNs.
as §2

With `O=NN(CCCl)C(=O)NCCCl` [i.p. BCNU, BCNU], in [1], the “CD3+CD45.2+ cells within the tumor microenvironment” value turned out to be 4% and the “CD3+CD45.2+ transferred cells in the DLNs” value came to 3%. Moreover, the “myelotoxicity (BM cellularity and CD45 leukocytes vs control)” value in series [2] (Example 2) is “late myelotoxicity”. For the same molecule, in series [2] (Example 3), the “CD45+ bone marrow cells (leukocytes) vs control, LC or LC+anti-PD1” value is reported as “decreased cell numbers” and the “bone marrow cellularity (live-dead staining)” value was “significant decrease in cellularity”. Also, the “OT-I cells divided (dilution of cell proliferation dye)” value in series [3] is given as 29.9%. Also, in series [4], the “IFNγ production of CD8+CD44[high]CD62L[low] cells from DLNs, spleen or peripheral blood” value was “dysfunctional IFNγ production”. For the same molecule, the “CD3+ lymphocytes in peripheral blood” value in [5] is listed as “severely lymphodepleted”. Besides, the “CD3+ cells and CD8+ IFN-γ+ cells in draining lymph nodes” value in series [6] (Example 3) is “lymphodepletion of both CD3+ cells and CD8+ IFN-γ+ cells”. Further, in [6] (cured mice, 4 months from tumor implantation), the “lymphocytes recovered from spleen, LN and blood vs untreated or LC treated mice” value is reported as “decreased number of recovered lymphocytes”. In series [7], this molecule had a median survival of 45 days. The “size of the spleen at necropsy vs LC and anti-PD1 treated mice” value in series [8] (experimental day 104) is recorded as “significantly decreased”. In [8] (long term survivors), the “tumor growth after re-challenge in the contralateral hemisphere” value is recorded as “not able to inhibit tumor growth”. Also, in series [9] (day 21), the “percent of CD4+FoxP3+ regulatory cells (Tregs) in TILs” value is on record as 55% and the “percentage of recovered CD8+ TILs producing IFNγ” value turned out to be 35%. Moreover, in [9] (day 30 post implantation), the “density of CD3+ TILs (number of cells normalized by tumor volume)” value was 40 cells.
